According to article PMC8213153 (PLoS ONE, 2021):
≈ marks a conversion by molar mass, not a printed value. Where two headings read alike, the source gives them in different places.

How the values were obtained:
Assay type in all cases: cell-based
[1] = system: TNF-α; assay: TNF-α level of virus-infected Vero cells (ELISA)
Protocol: (§1) To enable measurement of IL-6, IL-10 and TNF-α levels, the culture medium of the treated cells was collected in sterile micro-tubes and centrifuged at 3,500 rpm for 20 minutes. The supernatants were carefully collected and diluted with aquadest at a 1:5 volume ratio and vortexed until homogenous. The samples were deposited onto a well-plate, added to ELISA reagents (Bioassay Technology Laboratory, Shanghai, China), and incubated at 37°C for 60 minutes. Reagent substrate solution was then added to the well and incubated for ten minutes at 37°C. The samples were measured for antigen concentration using the optical density (OD) plotted into the standard curves of IL-6, IL-10, and TNF-α.

[2] = system: IL-6; assay: IL-6 level of virus-infected Vero cells (ELISA)
Protocol: as §1

[3] = system: SARS-CoV-2 virus; assay: microbe, parasite or virus in culture; details: for IC50: Severe acute respiratory syndrome coronavirus 2, Vero
[4] = system: IL-10; assay: IL-10 level of virus-infected Vero cells (ELISA)
Protocol: as §1

[5] = Cytotoxicity (MTT) assay of single and dual combinatory drugs; details: human
Protocol: Each tablet containing drugs was triturated and mixed until homogenous. Approximately 50 mg equivalent mass of drugs were weighed and added to dimethyl sulfoxide in order to solubilize the drugs. The suspension was sonicated in a water bath for 15 minutes before being added to Rosewell Park Memorial Institute (RPMI) media, sonicated again and vortexed to mix it until homogenous. The suspension was then filtered through a polycarbonate membrane with a pore size of 0.45 μm and then a pore size of 0.22 μm under aseptic conditions. The filtrate was mixed with 10% foetal bovine serum and penicillin streptomycin before being vortexed to produce a homogenous mixture to be used as a stock solution. The samples were prepared by diluting the stock solution of each drug with RPMI complete media at an appropriate level of dilution to produce a determined concentration. The dual combinatory drugs mixtures were prepared by mixing appropriate amounts of two drug stock solutions in order to produce a final concentration at the required level. The combinatory drugs were evaluated at both constant and non-constant ratios to evaluate their effects on the cytotoxicity, including; antagonistic, synergistic, or additive. A constant ratio of the mixture was achieved by adding drug solutions at the same ratio, thereby increasing each drug concentration, to produce dose escalation. In contrast, at a non-constant ratio, a fixed determined concentration of drug was added to increased doses of other drug solution in order to produce different levels of drug concentration.
The cytotoxic concentration (CC50) of drugs was performed by means of MTT assay at the Stem Cell Research and Development Center, Universitas Airlangga using human umbilical cord mesenchymal stem cells which had been obtained from human placenta tissue as approved by the Ethical Committee of Universitas Airlangga Hospital (Certificate number 101/KEH/2019 dated January 10, 2019). The cells were prepared as the primary cell culture and used for the cytotoxicity assay because of their sensitivity to chemicals. Cells were seeded into 96-well microplates at a concentration of 1x10^3 cells/well in 100 μL Alpha Minimum Essentials Medium (α-MEM, Gibco, USA) supplemented with 10% foetal bovine serum, 1% penicillin-streptomycin and 1% amphotericin-B. The plates were then incubated in a CO2 incubator at 37°C with 5% CO2 for 24 hours, at which point, the supernatant was replaced with α-MEM containing drugs at each concentration and incubated for a further 48 hours. Approximately 25μL of 3-(4,5-Dimethylthiazol-2-yl)-2,5-diphenyl tetrazolium-bromide (MTT) reagent at a concentration of 5mg/mL was subsequently added to each well and incubated for four hours at 37°C with 5% CO2. Purple formazan crystals were formed and observed under an inverted microscope. Dimethyl sulfoxide was added to each well with the complete solubilisation of formazan crystals subsequently being observed. The greater the number of formazan crystals formed, the lower the toxicity of the samples which were read for optical density of formazan using a multi reader at a measurement wavelength of 595 nm (Promega Glomax, USA). The CC50 value was analyzed by CompuSyn software (the ComboSyn Inc., accessed from www.combosyn.com).
In this study, the cytotoxicity assay was evaluated for single and dual combinatory drugs during a period of 48 hours of drug incubation. This assay was intended to evaluate the toxicity of dual combinatory drugs on normal cells. The combination ratios were calculated taking into consideration the usual therapeutic doses and plasma peak concentrations of the drugs. To determine this cytotoxicity, the drugs were mixed at both constant and non-constant ratios.

[6] = FAVIPIRAVIR-AZITHROMYCIN series, read-out: Cell Viability (%)
[7] = HYDROXYCHLOROQUINE-AZITHROMYCIN series, read-out: Cell Viability (%)
[8] = LOPIRITO-AZITHROMYCIN series, read-out: Viability Cell (%)
[9] = HYDROXYCHLOROQUINE-DOXYCYCLINE series, read-out: Cell viability (%)
[10] = LOPIRITO-DOXYCYCLINE series, read-out: Cell Viability (%)

CC[C@H]1OC(=O)[C@H](C)[C@@H](O[C@H]2C[C@@](C)(OC)[C@@H](O)[C@H](C)O2)[C@H](C)[C@@H](O[C@@H]2O[C@H](C)C[C@H](N(C)C)[C@H]2O)[C@](C)(O)C[C@@H](C)CN(C)[C@H](C)[C@@H](O)[C@]1(C)O [AZI, Azithromycin]
TNF-α ([1]; 15 μg/mL, 24-h): 6.994 ± 1.32 pg/mL
TNF-α ([1]; 15 μg/mL, 48-h): 478 ± 1.50 pg/mL
TNF-α ([1]; 15 μg/mL, 72-h): 777.34 ± 1.67 pg/mL
TNF-α ([1]; 62.5 μg/mL, 24-h): 86.00 ± 2.84 pg/mL
TNF-α ([1]; 62.5 μg/mL, 48-h): 381.30 ± 1.28 pg/mL
TNF-α ([1]; 62.5 μg/mL, 72-h): 641.33 ± 0.00 pg/mL
TNF-α ([1]; 24, 48, and 72 hours, cell without concentration): No effects
TNF-α levels (in words) ([1]; Table 5): no effects
IL-6 ([2]; 15 μg/mL, 24-h): 14.55 ± 2.22 ng/L
IL-6 ([2]; 15 μg/mL, 72-h): 565.92 ± 0.00 ng/L
IL-6 ([2]; 62.5 μg/mL, 24-h): 15.92 ± 0.57 ng/L
IL-6 ([2]; 62.5 μg/mL, 48-h): 33.47 ± 3.98 ng/L
IL-6 ([2]; 62.5 μg/mL, 72-h): 529.11 ± 0.95 ng/L
IL-6 (in words) ([2]; Table 5): reduced
Virus Titer ([3]; 15 μg/mL, 24-h): 38.18 viral protein fg/mL
Virus Titer ([3]; 62.5 μg/mL, 48-h): 38.78 viral protein fg/mL
IC50 ([3]; 24h, MoI 0.04): 51.9 µg/mL (≈ 69.3 µM)
IC50 ([3]; 48h, MoI 0.04): 19.6 µg/mL (≈ 26.2 µM)
IC50 ([3]; 72h, MoI 0.04): < 10 µg/mL
IL-10 ([4]; 15 μg/mL, 24-h): 32.78 ± 1.18 pg/mL
IL-10 ([4]; 15 μg/mL, 48-h): 152.34 ± 1.72 pg/mL
IL-10 ([4]; 15 μg/mL, 72-h): 609.92 ± 1.48 pg/mL
IL-10 ([4]; 15 μg/mL, 24h): ↗↗ (15 μg/mL; 24h)
IL-10 ([4]; 62.5 μg/mL, 24-h): 53.50 ± 1.85 pg/mL
IL-10 ([4]; 62.5 μg/mL, 48-h): 91.92 ± 1.45 pg/mL
IL-10 levels (in words) ([4]; Table 5): increased
viability at 48 h, 0.2 μg/mL [5, 6]: 115%
viability at 48 h, 2 μg/mL [5, 6]: 107%
viability at 48 h, 10 μg/mL [5, 6]: 110%
viability at 48 h, 100 μg/mL [5, 6]: 139%
viability at 48 h, 400 μg/mL [5, 6]: 90.9%
viability at 48 h, 2 μg/mL [5, 7]: 94.2%
viability at 48 h, 10 μg/mL [5, 7]: 104%
viability at 48 h, 100 μg/mL [5, 7]: 110%
viability at 48 h, 400 μg/mL [5, 7]: 68.9%
viability at 48 h, 0.2 μg/mL [5, 8]: 84.7%
viability at 48 h, 2 μg/mL [5, 8]: 81.2%
viability at 48 h, 10 μg/mL [5, 8]: 84.6%
viability at 48 h, 100 μg/mL [5, 8]: 89.5%
viability at 48 h, 400 μg/mL [5, 8]: 81.2%

C[C@H]1c2cccc(O)c2C(=O)C2=C(O)[C@]3(O)C(=O)C(C(N)=O)=C(O)[C@@H](N(C)C)[C@@H]3[C@@H](O)[C@@H]21 [DOXY, Doxycycline]
TNF-α ([1]; 1 μg/mL, 24-h): 1.98 ± 0.00 pg/mL
TNF-α ([1]; 1 μg/mL, 48-h): 408.19 ± 0.77 pg/mL
TNF-α ([1]; 1 μg/mL, 72-h): 511.16 ± 3.09 pg/mL
TNF-α ([1]; 1 μg/mL, 24h): ↘↘ (1 μg/mL; 24h)
TNF-α ([1]; 15 μg/mL, 24-h): 1.98 ± 0.84 pg/mL
TNF-α ([1]; 15 μg/mL, 48-h): 408.19 ± 0.84 pg/mL
TNF-α ([1]; 15 μg/mL, 72-h): 529.12 ± 0.46 pg/mL
IL-6 ([2]; 1 μg/mL, 24-h): 21.06 ± 1.43 ng/L
IL-6 ([2]; 1 μg/mL, 48-h): 36.93 ± 0.93 ng/L
IL-6 ([2]; 1 μg/mL, 72-h): 40.56 ± 0.56 ng/L
IL-6 ([2]; 1 μg/mL, 24h): ↘↘ (1 μg/mL; 24h)
IL-6 ([2]; 15 μg/mL, 24-h): 13.34 ± 0.86 ng/L
IL-6 ([2]; 15 μg/mL, 48-h): 37.98 ± 0.94 ng/L
IL-6 ([2]; 15 μg/mL, 72-h): 43.01 ± 0.05 ng/L
Virus Titer ([3]; 1 μg/mL, 24-h): 38.42 viral protein fg/mL
Virus Titer ([3]; 15 μg/mL, 24-h): 36.90 viral protein fg/mL
Virus Titer ([3]; 15 μg/mL, 48-h): 37.85 viral protein fg/mL
Virus Titer ([3]; 15 μg/mL, 72-h): 39.15 viral protein fg/mL
Drug concentration that produced an undetected virus copy number ([3]; MoI 0.04, at 24, 48, and/or 72 hours' incubation): 37.5 µg/mL
IC50 ([3]; 24h, MoI 0.04): 18 µg/mL (≈ 40.5 µM)
IC50 ([3]; 48h, MoI 0.04): 4.7 µg/mL (≈ 10.6 µM)
IC50 ([3]; 72h, MoI 0.04): 0.4 µg/mL (≈ 0.9 µM)
Results (virus detection) ([3]; at the drug concentration of the same line of Table 4, MoI 0.04): 24, 48, 72h virus undetected
IL-10 ([4]; 1 μg/mL, 24-h): 35.31 ± 0.22 pg/mL
IL-10 ([4]; 1 μg/mL, 48, 72h): ↗↗ (1 μg/mL; 48, 72h)
IL-10 ([4]; 1 μg/mL, 48-h): 219.74 ± 0.08 pg/mL
IL-10 ([4]; 1 μg/mL, 72-h): 415.82 ± 0.23 pg/mL
IL-10 ([4]; 15 μg/mL, 24-h): 35.31 ± 1.53 pg/mL
IL-10 ([4]; 15 μg/mL, 48-h): 219.74 ± 1.41 pg/mL
IL-10 ([4]; 15 μg/mL, 72-h): 702.97 ± 0.07 pg/mL
viability at 48 h, 0.2 μg/mL [5, 9]: 96.9%
viability at 48 h, 2 μg/mL [5, 9]: 112%
viability at 48 h, 10 μg/mL [5, 9]: 117%
viability at 48 h, 100 μg/mL [5, 9]: 120%
viability at 48 h, 400 μg/mL [5, 9]: 96.5%
CC50 at 48 h ([5]; LOPIRITO-DOXY experiment (Fig 6), 48 hours, CompuSyn, n = 3, read-out: CC50): 16500 µg/mL
viability at 48 h, 0.2 μg/mL [5, 10]: 103%
viability at 48 h, 2 μg/mL [5, 10]: 104%
viability at 48 h, 10 μg/mL [5, 10]: 105%
viability at 48 h, 100 μg/mL [5, 10]: 92.8%
viability at 48 h, 400 μg/mL [5, 10]: 91.7%
